Source: patent USRE46856E1, “Substituted 2,3-dihydroimidazo[1,2-c]quinazoline derivatives useful for treating hyper-proliferative disorders and diseases associated with angiogenesis” (Bayer Intellectual Property GmbH, priority 2006, dated 2018)
Where a name gives a salt, the structure may show the parent alone.

How the values were obtained:
[1] = system: IGF-1 induced AKT phosphorylation in A549 cells; assay: IGF-1 induced AKT phosphorylation assay (A549 cell assay); assay type: cell-based; settings: Homo sapiens; A549 cells, 25 ng/ml IGF-1, phospho-AKT(Ser 473); read-out: average IC50 in the A549 cell assay
Description: [Determination of IC50 Values of Compounds in Cell Based Assays of PI3K Activity] 96-well collagen treated clear bottom/black sided Costar plates were purchased from CORNING LIFE SCIENCES (Corning, N.Y.; at.#3904). Gibco RPMI medium (Cat.#11875), Biosource anti-phospho-AKT([…]) antibody (Cat.#44-621G) and recombinant IGF-1 (Cat.#PHG0074) were purchased from INVITROGEN (Carlsbad, Calif.). The secondary donkey anti-rabbit IgG horse radish peroxidase conjugate (Cat. #N[…]) and ECL chemiluminesence reagent (Cat.#RPN2209) were purchased from […] (Buckinghamshire, UK). Cell culture tested bovine serum albumin solution (35% in DPBS; Cat.#A7979) and all other chemicals were purchased from SIGMA (St. Louis, Mo.). The Wallac Victor2 1420 Multilabel HTS Counter was purchased from […] (Wellesley, Mass.) […] All wells (except no IGF-1 controls) were then treated with 25 ng/ml IGF-1 for 10 minutes at 37° C. in a 5% CO2 incubator. Following removal of the supernatants and washing with the wells with TBS (50 mM Tris pH 8.0 containing 138 mM NaCL and 27 mM KCl), 200 µL of 3.7% formaldehyde in TBS was added to each well, and the plate was incubated at 4° C. for 10 minutes. Supernatants were once again removed and replaced with 50 μL Methanol (-20° C.) and the plate incubated at 4° C. for 5 minutes. 200 μL of 0.1% BSA in TBS was then added to each well and the plate incubated at room temperature for 1⁄2 hour. Supernatants were removed and 50 μL of a solution comprising the primary anti-phospho-AKT([…]) antibody diluted 1:250 in TBS containing 0.1% BSA was added to each well (except control/background wells). The plate was then incubated for 11⁄2 hour at room temperature. Supernatants were removed, each well was washed 3 times with 200 μL TBS, and 100 μL of a solution containing the secondary donkey anti-rabbit IgG antibody HRP-conjugate diluted 1:100 in TBS-T (TBS containing 0.1% triton). Plates were then incubated for 1 hour at room temperature. After removing the secondary antibody, each well was washed 6 times with cold TBS-T, 100 μL of ECL was added to each well, and the plate was placed on an orbital shaker for 1 minute. The plates were then read on a Wallac Victor2 1420 Multilabel HTS Counter using the luminometry window (maximum light detection is measured at […]). IC50 values were determined from the inhibition curve.

PI3Kα = molecular target: T1, PI3Kα (Homo sapiens, UniProt P42336); assay: Solid-phase lipid kinase assay of PI3Kα (p110α assay); assay type: biochemical; settings: recombinant truncated human p110α, 10 μM ATP
T1 construct: His6 (N); made in house; host or cells: S. frugiperda 9 (Sf9) insect cells
T1 sequence (P42336 109-1068): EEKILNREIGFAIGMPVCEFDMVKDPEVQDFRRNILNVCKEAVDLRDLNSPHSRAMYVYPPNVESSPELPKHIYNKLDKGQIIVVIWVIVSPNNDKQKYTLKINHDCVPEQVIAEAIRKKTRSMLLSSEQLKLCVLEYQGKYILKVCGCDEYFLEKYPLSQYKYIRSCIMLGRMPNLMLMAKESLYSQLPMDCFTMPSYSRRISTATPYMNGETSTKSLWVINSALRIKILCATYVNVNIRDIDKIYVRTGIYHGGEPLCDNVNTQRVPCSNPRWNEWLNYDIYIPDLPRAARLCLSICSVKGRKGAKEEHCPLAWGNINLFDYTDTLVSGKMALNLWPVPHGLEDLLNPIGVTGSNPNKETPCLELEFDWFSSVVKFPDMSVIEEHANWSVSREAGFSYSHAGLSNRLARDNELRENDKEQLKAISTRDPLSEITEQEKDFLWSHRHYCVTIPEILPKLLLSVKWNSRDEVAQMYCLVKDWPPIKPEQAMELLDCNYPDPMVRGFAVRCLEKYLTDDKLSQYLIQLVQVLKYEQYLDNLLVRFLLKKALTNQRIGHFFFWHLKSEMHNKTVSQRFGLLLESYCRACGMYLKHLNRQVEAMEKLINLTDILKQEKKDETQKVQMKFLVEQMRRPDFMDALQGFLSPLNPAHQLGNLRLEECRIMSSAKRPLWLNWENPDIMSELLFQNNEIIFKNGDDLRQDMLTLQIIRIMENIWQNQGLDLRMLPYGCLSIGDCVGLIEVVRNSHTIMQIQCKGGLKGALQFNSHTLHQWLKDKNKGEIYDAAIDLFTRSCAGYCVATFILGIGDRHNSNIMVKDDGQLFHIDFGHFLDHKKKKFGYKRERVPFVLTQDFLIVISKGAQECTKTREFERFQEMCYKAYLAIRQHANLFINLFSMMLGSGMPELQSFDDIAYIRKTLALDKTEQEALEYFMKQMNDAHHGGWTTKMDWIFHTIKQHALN
Description: [Determination of IC50 Values of Compounds in Kinase Assay of PI3Kα]
LABORATORIES (Toronto, Canada). […] [γ^33P]ATP and unlabeled ATP were purchased from […] […] BIOTECH (Buckinghamshire, UK) and ROCHE DIAGNOSTICS (Mannheim, Germany), respectively. Scintillation cocktails and MicroScint PS™ were purchased from PACKARD (Meriden, Conn.). Maxisorp™ plates were purchased from NALGE NUNC INTERNATIONAL K.K. (Tokyo, Japan). All other chemicals not further specified were from WAKO PURE CHEMICALS (Osaka, Japan).
The plates were subsequently air-dried by incubation for at least 2 hours in a fume hood. The reaction was set up by mixing 25 μL/well of assay buffer 2×(100 mM MOPSO/NaOH, 0.2 M NaCl, pH 7.0, 8 mM MgCl2, 2 mg/mL BSA (fatty acid-free)), and 7.5 ng/well PI3Kα in the lipid pre-coated plate. 100× test compounds were added in 2% DMSO. The reaction was started by adding 20 μL/well of ATP mix (final 10 μM ATP; 0.05 μCi/well [γ^33P]ATP). After incubation at RT for 2 hours, the reaction was terminated by adding 50 μl/well stop solution (50 mM EDTA, pH 8.0). The plate was then washed twice with Tris-buffered saline (TBS, pH 7.4). MicroScint PS™ (PACKARD) scintillation mix was added at 100 μL/well, and radioactivity was counted using a TopCount™ (PACKARD) scintillation counter.
The inhibition percent at each concentration of compound was calculated, and IC50 values were determined from the inhibition of curve.

PI3Kβ = molecular target: T2, PI3Kβ (Homo sapiens, UniProt P42338); assay: Isozyme selectivity test: kinase assay of PI3Kβ (p110β assay); assay type: biochemical; settings: recombinant truncated p110β, 7.5 ng protein/well
T2 construct: His6 (N); made in house; host or cells: S. frugiperda 9 (Sf9) insect cells
T2 sequence (P42338 109-1070): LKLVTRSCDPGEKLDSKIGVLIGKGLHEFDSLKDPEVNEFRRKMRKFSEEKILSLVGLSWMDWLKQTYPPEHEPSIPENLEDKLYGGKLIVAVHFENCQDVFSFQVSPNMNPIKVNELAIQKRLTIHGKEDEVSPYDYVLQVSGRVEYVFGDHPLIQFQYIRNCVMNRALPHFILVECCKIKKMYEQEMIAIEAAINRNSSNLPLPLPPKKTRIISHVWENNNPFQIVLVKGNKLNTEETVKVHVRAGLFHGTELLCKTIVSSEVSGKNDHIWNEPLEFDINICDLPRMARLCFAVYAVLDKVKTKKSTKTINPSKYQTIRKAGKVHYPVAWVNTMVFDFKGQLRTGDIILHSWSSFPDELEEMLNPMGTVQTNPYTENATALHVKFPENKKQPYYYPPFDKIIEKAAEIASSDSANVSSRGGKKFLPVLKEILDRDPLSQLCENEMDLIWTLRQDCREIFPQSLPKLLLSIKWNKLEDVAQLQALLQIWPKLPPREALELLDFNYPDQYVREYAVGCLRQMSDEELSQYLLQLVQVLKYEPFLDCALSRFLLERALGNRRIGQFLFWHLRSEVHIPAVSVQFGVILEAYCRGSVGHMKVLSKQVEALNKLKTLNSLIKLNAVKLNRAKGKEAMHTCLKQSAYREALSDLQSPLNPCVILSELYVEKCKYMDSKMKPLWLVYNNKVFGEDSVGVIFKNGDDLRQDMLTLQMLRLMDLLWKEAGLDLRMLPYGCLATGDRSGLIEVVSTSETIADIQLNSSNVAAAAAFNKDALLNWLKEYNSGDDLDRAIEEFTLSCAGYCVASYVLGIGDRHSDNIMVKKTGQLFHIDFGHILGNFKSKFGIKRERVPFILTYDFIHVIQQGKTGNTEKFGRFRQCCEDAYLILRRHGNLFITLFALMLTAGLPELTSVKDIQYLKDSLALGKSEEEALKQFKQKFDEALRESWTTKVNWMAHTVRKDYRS
Description: [Isozyme Selectivity Test in PI3K]
Determination of IC50 Values of Compounds in Kinase Assays of PI3Kβ and PI3Kγ

| IC50 [1] [µM] | IC50 (PI3Kα) [µM] | IC50 (PI3Kβ) [µM] | Compound |
| --- | --- | --- | --- |
| > 1 | > 0.1 | > 0.1 | COc1c(OCCCN(C)C)ccc2c1N=C(NC(=O)c1ccc[n+]([O-])c1)N1CCN=C21 [Example 12, N-{8-[3-(dimethylamino)propoxy]-7-methoxy-2,3-dihydroimidazo[1,2-c]quinazolin-5-yl}nicotinamide 1-oxide] |
| > 1 | 0.01 to 0.1 | 0.01 to 0.1 | COc1c(OCCCN2CCOCC2)ccc2c1N=C(NC(=O)c1ccc(CCN3CCCC3)nc1)N1CCN=C21 [Example 14, N-[7-methoxy-8-(3-morpholin-4-ylpropoxy)-2,3-dihydroimidazo[1,2-c]quinazolin-5-yl]-6-(2-pyrrolidin-1-ylethyl)nicotinamide] |
| > 1 | 0.01 to 0.1 | 0.01 to 0.1 | COc1c(OCCCN2CCOCC2)ccc2c1N=C(NC(=O)c1ccc(NC3CCCC3)nc1)N1CCN=C21 [Example 15, 6-(cyclopentylamino)-N-[7-methoxy-8-(3-morpholin-4-ylpropoxy)-2,3-dihydroimidazo[1,2-c]quinazolin-5-yl]nicotinamide] |
|  | 0.01 to 0.1 | 0.01 to 0.1 | COc1c(OCCCN2CCOC[C@@H]2C)ccc2c1N=C(NC(=O)c1cccnc1)N1CCN=C21 [Example 17, N-{7-methoxy-8-[3-(3-methylmorpholin-4-yl)propoxy]-2,3-dihydroimidazo[1,2-c]quinazolin-5-yl}nicotinamide] |
| < 0.1 | < 0.01 | < 0.01 | COc1c(OCCC2CN(CC3CCC3)CCO2)ccc2c1N=C(NC(=O)c1cccnc1)N1CCN=C21 (centres unmarked) [Example 19, N-(8-{2-[4-(cyclobutylmethyl)morpholin-2-yl]ethoxy}-7-methoxy-2,3-dihydroimidazo[1,2-c]quinazolin-5-yl)nicotinamide] |
|  | 0.01 to 0.1 | 0.01 to 0.1 | COc1c(OCCCN2CCOCC2)ccc2c1N=C(NC(=O)c1cnc(N3CCOCC3)nc1)N1CCN=C21 [Example 49, N-[7-methoxy-8-(3-morpholin-4-ylpropoxy)-2,3-dihydroimidazo[1,2-c]quinazolin-5-yl]-2-morpholin-4-ylpyrimidine-5-carboxamide] |
| < 0.1 |  |  | CCN(CC)CCCOc1ccc2c(c1OC)N=C(NC(=O)c1cccnc1)N1CCN=C21 [Example 85, N-{8-[3-(diethylamino)propoxy]-7-methoxy-2,3-dihydroimidazo[1,2-c]quinazolin-5-yl}nicotinamide] |
| 0.1 to 1 |  |  | COc1c(OCCN(C(C)C)C(C)C)ccc2c1N=C(NC(=O)c1cccnc1)N1CCN=C21 [Example 86, N-{8-[2-(diisopropylamino)ethoxy]-7-methoxy-2,3-dihydroimidazo[1,2-c]quinazolin-5-yl}nicotinamide] |
| 0.1 to 1 |  |  | CCN(CC)CCOc1ccc2c(c1OC)N=C(NC(=O)c1cccnc1)N1CCN=C21 [Example 87, N-{8-[2-(diethylamino)ethoxy]-7-methoxy-2,3-dihydroimidazo[1,2-c]quinazolin-5-yl}nicotinamide] |
| 0.1 to 1 |  |  | COc1c(OCCCN(C)C)ccc2c1N=C(NC(=O)c1cccnc1)N1CCN=C21 [Example 88, N-{8-[3-(dimethylamino)propoxy]-7-methoxy-2,3-dihydroimidazo[1,2-c]quinazolin-5-yl}nicotinamide] |
| 0.1 to 1 |  |  | COc1c(OCCN(C)C)ccc2c1N=C(NC(=O)c1cccnc1)N1CCN=C21 [Example 89, N-{8-[2-(dimethylamino)ethoxy]-7-methoxy-2,3-dihydroimidazo[1,2-c]quinazolin-5-yl}nicotinamide] |
| < 0.1 |  |  | CNc1ncc(C(=O)NC2=Nc3c(ccc(OCCCN4CCOCC4)c3OC)C3=NCCN23)cn1 [Example 90, N-[7-methoxy-8-(3-morpholin-4-ylpropoxy)-2,3-dihydroimidazo[1,2-c]quinazolin-5-yl]-2-(methylamino)pyrimidine-5-carboxamide] |
| < 0.1 |  |  | COc1c(OCCCN2CCOCC2)ccc2c1N=C(NC(=O)c1cnc(SC)nc1)N1CCN=C21 [Example 91, N-[7-methoxy-8-(3-morpholin-4-ylpropoxy)-2,3-dihydroimidazo[1,2-c]quinazolin-5-yl]-2-(methylthio)pyrimidine-5-carboxamide] |
| > 1 |  |  | COc1c(OCCCN)ccc2c1N=C(NC(=O)c1cccnc1)N1CCN=C21 [Example 92, N-[8-(3-aminopropoxy)-7-methoxy-2,3-dihydroimidazo[1,2-c]quinazolin-5-yl]nicotinamide trifluoroacetate] |
| < 0.1 |  |  | COc1c(OCCCN2CCOCC2)ccc2c1N=C(NC(=O)c1sc(C)nc1C)N1CCN=C21 [Example 94, N-[7-methoxy-8-(3-morpholin-4-ylpropoxy)-2,3-dihydroimidazo[1,2-c]quinazolin-5-yl]-2,4-dimethyl-1,3-thiazole-5-carboxamide] |
| < 0.1 |  |  | COc1ncc(C(=O)NC2=Nc3c(ccc(OCCCN4CCOCC4)c3OC)C3=NCCN23)cn1 [Example 95, 2-methoxy-N-[7-methoxy-8-(3-morpholin-4-ylpropoxy)-2,3-dihydroimidazo[1,2-c]quinazolin-5-yl]pyrimidine-5-carboxamide] |
| 0.1 to 1 |  |  | COc1c(OCCCN2CCOCC2)ccc2c1N=C(NC(=O)c1ccoc1)N1CCN=C21 [Example 96, N-[7-methoxy-8-(3-morpholin-4-ylpropoxy)-2,3-dihydroimidazo[1,2-c]quinazolin-5-yl]-3-furamide] |
| 0.1 to 1 |  |  | COc1c(OCCCN2CCOCC2)ccc2c1N=C(NC(=O)c1ccsc1)N1CCN=C21 [Example 97, N-[7-methoxy-8-(3-morpholin-4-ylpropoxy)-2,3-dihydroimidazo[1,2-c]quinazolin-5-yl]thiophene-3-carboxamide] |
| < 0.1 |  |  | COc1ccc(C(=O)NC2=Nc3c(ccc(OCCCN4CCOCC4)c3OC)C3=NCCN23)cn1 [Example 99, 6-methoxy-N-[7-methoxy-8-(3-morpholin-4-ylpropoxy)-2,3-dihydroimidazo[1,2-c]quinazolin-5-yl]nicotinamide] |
| 0.1 to 1 |  |  | COc1cncc(C(=O)NC2=Nc3c(ccc(OCCCN4CCOCC4)c3OC)C3=NCCN23)c1 [Example 100, 5-methoxy-N-[7-methoxy-8-(3-morpholin-4-ylpropoxy)-2,3-dihydroimidazo[1,2-c]quinazolin-5-yl]nicotinamide] |
| < 0.1 |  |  | COc1c(OCCCN2CCOCC2)ccc2c1N=C(NC(=O)c1ccc(C)nc1)N1CCN=C21 [Example 101, N-[7-methoxy-8-(3-morpholin-4-ylpropoxy)-2,3-dihydroimidazo[1,2-c]quinazolin-5-yl]-6-methylnicotinamide] |
| < 0.1 |  |  | COc1c(OCCCN2CCOCC2)ccc2c1N=C(NC(=O)c1cccnc1)N1CCN=C21 [Example 103, N-[7-methoxy-8-(3-morpholin-4-ylpropoxy)-2,3-dihydroimidazo[1,2-c]quinazolin-5-yl]nicotinamide] |
